Measurements reported in ChEMBL document CHEMBL1201862, “PubChem BioAssay data set” (2004).
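Growth conditions: 96-well plates. Treatment: test compound, 48 hours, 5 concentrations. Analysis: linear interpolation between bracketing concentrations; unreached endpoints set to highest concentration. GI50: concentration for 50% inhibition of growth.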 Calls of active or inactive are those of the source. No stated cut-off is given here; in the data, active = GI50 up to about 1.1 µM and inactive = higher.

Tests used:
Assay in all cases: inhibition of tumour cell growth, NCI panel, 48 h
ACHN = system: ACHN
CAKI-1 = system: CAKI-1
CCRF-CEM = system: CCRF-CEM
EKVX = system: EKVX
HCT-116 = system: HCT-116
HT-29 = system: HT-29
LOX IMVI = system: LOX IMVI
MCF7 = system: MCF7
MDA-MB-231 = system: MDA-MB-231
MDA-N = system: MDA-N
NCI-H226 = system: NCI-H226
NCI-H23 = system: NCI-H23
NCI-H522 = system: NCI-H522
RPMI-8226 = system: RPMI-8226
SK-MEL-28 = system: SK-MEL-28
SN12C = system: SN12C
SW-620 = system: SW-620
U-251 = system: U-251
UACC-257 = system: UACC-257
UO-31 = system: UO-31

SMILES | GI50 (ACHN) | GI50 (CAKI-1) | GI50 (CCRF-CEM) | GI50 (EKVX) | GI50 (HCT-116) | GI50 (HT-29) | GI50 (LOX IMVI) | GI50 (MCF7) | GI50 (MDA-MB-231) | GI50 (MDA-N) | GI50 (NCI-H226) | GI50 (NCI-H23) | GI50 (NCI-H522) | GI50 (RPMI-8226) | GI50 (SK-MEL-28) | GI50 (SN12C) | GI50 (SW-620) | GI50 (U-251) | GI50 (UACC-257) | GI50 (UO-31)
CCCn1cnc2c(SCC(=O)O)nc(N)nc21 | > 100 µM (inactive) | > 100 µM (inactive) | > 100 µM (inactive) | > 100 µM (inactive) | > 100 µM (inactive) | > 100 µM (inactive) | > 100 µM (inactive) | > 100 µM (inactive) | > 100 µM (inactive) | > 100 µM (inactive) | > 100 µM (inactive) | > 100 µM (inactive) | > 100 µM (inactive) | > 100 µM (inactive) | > 100 µM (inactive) | > 100 µM (inactive) | > 100 µM (inactive) | > 100 µM (inactive) | > 100 µM (inactive) | > 100 µM (inactive)
O=C1NC2C(=CC(O)C(O)C2O)c2cc3c(cc21)OCO3 (stereo not given) | 0.144 µM (active) | 0.28 µM (active) | 0.206 µM (active) | 0.412 µM (active) | 0.15 µM (active) | 0.345 µM (active) | 0.308 µM (active) | 0.338 µM (active) | 0.0486 µM (active) | 0.0832 µM (active) | 0.504 µM (active) | 0.459 µM (active) | 0.244 µM (active) | 0.414 µM (active) | 0.417 µM (active) | 0.301 µM (active) | 0.335 µM (active) | 0.218 µM (active) | 0.695 µM (active) | 0.564 µM (active)
CC(C)[Si]1(C(C)C)OCC2OC(n3c(C(=O)c4ccccc4)cc(=O)[nH]c3=O)CC2O[Si](C(C)C)(C(C)C)O1 (stereo not given) | 3.16 µM (inactive) | 5.53 µM (inactive) | 2.12 µM (inactive) | 3.71 µM (inactive) | 3.15 µM (inactive) | 1.9 µM (inactive) | 2 µM (inactive) | 2.94 µM (inactive) | 2.37 µM (inactive) | 3.2 µM (inactive) | 2.94 µM (inactive) | 2.52 µM (inactive) | 1.7 µM (inactive) | 2.85 µM (inactive) | 3.72 µM (inactive) | 2.39 µM (inactive) | 2.81 µM (inactive) | 3.15 µM (inactive) | 2.34 µM (inactive) | 2.47 µM (inactive)
COc1cc(C[C@H]2C(=O)OC[C@@H]2Cc2ccc(OC)c(OC)c2)cc(OC)c1 | 31.2 µM (inactive) | > 100 µM (inactive) | 25.8 µM (inactive) | 55.6 µM (inactive) | 34.7 µM (inactive) | 33.2 µM (inactive) | 18.5 µM (inactive) | 34.2 µM (inactive) | 93.3 µM (inactive) | 58.5 µM (inactive) | > 100 µM (inactive) | 39.4 µM (inactive) | 64.3 µM (inactive) | 52.7 µM (inactive) | 62.2 µM (inactive) | > 100 µM (inactive) | 70.6 µM (inactive) | 70.8 µM (inactive) | 51.5 µM (inactive) | 39.6 µM (inactive)
N#CC12C(=O)N3C(=NC(c4ccccc4)NC3c3ccccc3)C1(C#N)C(c1ccccc1)NC1=C2CCC1 (stereo not given) | > 100 µM (inactive) | > 100 µM (inactive) | > 100 µM (inactive) | > 100 µM (inactive) | > 100 µM (inactive) | > 100 µM (inactive) | > 100 µM (inactive) | > 100 µM (inactive) | > 100 µM (inactive) | > 100 µM (inactive) | > 100 µM (inactive) | > 100 µM (inactive) | > 100 µM (inactive) | > 100 µM (inactive) | > 100 µM (inactive) | > 100 µM (inactive) | > 100 µM (inactive) | > 100 µM (inactive) | > 100 µM (inactive) | > 100 µM (inactive)
Cc1ccc(/C=N/Nc2nc3ccccc3s2)s1 | > 100 µM (inactive) | 79.3 µM (inactive) | > 100 µM (inactive) | 50.7 µM (inactive) | > 100 µM (inactive) | 40.8 µM (inactive) | > 100 µM (inactive) | 5.53 µM (inactive) | 24.7 µM (inactive) | > 100 µM (inactive) | > 100 µM (inactive) | > 100 µM (inactive) | > 100 µM (inactive) | > 100 µM (inactive) | > 100 µM (inactive) | 12.6 µM (inactive) | > 100 µM (inactive) | 81.1 µM (inactive) | > 100 µM (inactive) | 51.6 µM (inactive)
COC(=O)c1c(O)ccc2c1C1(Cc3ccccc3C1=O)C(O)O2 (stereo not given) | 14.9 µM (inactive) | 16.1 µM (inactive) | 2.46 µM (inactive) | 23.1 µM (inactive) | 15.6 µM (inactive) | 43.2 µM (inactive) | 19.5 µM (inactive) | 12.6 µM (inactive) | 17.3 µM (inactive) | 13.7 µM (inactive) | 9.79 µM (inactive) | 33.2 µM (inactive) | 3.86 µM (inactive) | 2.88 µM (inactive) | 36.9 µM (inactive) | 16.4 µM (inactive) | 25.1 µM (inactive) | 20.5 µM (inactive) | > 100 µM (inactive) | 10.1 µM (inactive)
CN1CCN(c2nc3c(c(=O)n(C)c(=O)n3C)n2C)CC1 | > 100 µM (inactive) | > 100 µM (inactive) | > 100 µM (inactive) | > 100 µM (inactive) | > 100 µM (inactive) | > 100 µM (inactive) | > 100 µM (inactive) | > 100 µM (inactive) | > 100 µM (inactive) | > 100 µM (inactive) | > 100 µM (inactive) | > 100 µM (inactive) | > 100 µM (inactive) | > 100 µM (inactive) | > 100 µM (inactive) | > 100 µM (inactive) | > 100 µM (inactive) | > 100 µM (inactive) | > 100 µM (inactive) | > 100 µM (inactive)
O=c1cc(NCc2ccncc2)[nH]c(=O)[nH]1 | > 100 µM (inactive) | > 100 µM (inactive) | > 100 µM (inactive) | > 100 µM (inactive) | > 100 µM (inactive) | > 100 µM (inactive) | > 100 µM (inactive) | > 100 µM (inactive) | > 100 µM (inactive) | > 100 µM (inactive) | > 100 µM (inactive) | > 100 µM (inactive) | > 100 µM (inactive) | > 100 µM (inactive) | > 100 µM (inactive) | > 100 µM (inactive) | > 100 µM (inactive) | > 100 µM (inactive) | > 100 µM (inactive) | > 100 µM (inactive)
Cc1c(S(=O)(=O)/N=C(\NN)Nc2ccc(Cl)cc2)sc2ccc(Cl)cc12 | 16.3 µM (inactive) | 19 µM (inactive) | 16.3 µM (inactive) | 13.9 µM (inactive) | 13.3 µM (inactive) | 16.6 µM (inactive) | 18.6 µM (inactive) | 14.9 µM (inactive) | 16.5 µM (inactive) | 15.6 µM (inactive) | 20 µM (inactive) | 17.7 µM (inactive) | 17.3 µM (inactive) | 27.9 µM (inactive) | 20.6 µM (inactive) | 16.7 µM (inactive) | 24 µM (inactive) | 16.3 µM (inactive) | 18.2 µM (inactive) | 19 µM (inactive)
Cc1nc2ccccc2c(-n2cccn2)c1CCn1cccn1 | 80.7 µM (inactive) | > 100 µM (inactive) | 66.1 µM (inactive) | > 100 µM (inactive) | > 100 µM (inactive) | > 100 µM (inactive) | 50.6 µM (inactive) | > 100 µM (inactive) | 51.4 µM (inactive) | > 100 µM (inactive) | > 100 µM (inactive) | > 100 µM (inactive) | > 100 µM (inactive) | > 100 µM (inactive) | > 100 µM (inactive) | > 100 µM (inactive) | > 100 µM (inactive) | > 100 µM (inactive) | > 100 µM (inactive) | 1.77 µM (inactive)
Cc1n[nH]c(=O)n1/N=C\CC/C=N\n1c(C)n[nH]c1=O | > 100 µM (inactive) | > 100 µM (inactive) | > 100 µM (inactive) | > 100 µM (inactive) | > 100 µM (inactive) | > 100 µM (inactive) | > 100 µM (inactive) | > 100 µM (inactive) | > 100 µM (inactive) | > 100 µM (inactive) | > 100 µM (inactive) | > 100 µM (inactive) | > 100 µM (inactive) | > 100 µM (inactive) | > 100 µM (inactive) | > 100 µM (inactive) | > 100 µM (inactive) | > 100 µM (inactive) | > 100 µM (inactive) | > 100 µM (inactive)
NCCSc1nc2ccccc2c(=O)n1-c1ccccc1 | 21.6 µM (inactive) | 90.6 µM (inactive) | 45.7 µM (inactive) | > 100 µM (inactive) | 60.3 µM (inactive) | 49.7 µM (inactive) | 71.9 µM (inactive) | 90.8 µM (inactive) | > 100 µM (inactive) | 42.9 µM (inactive) | > 100 µM (inactive) | 50.2 µM (inactive) | 30.8 µM (inactive) | > 10 µM (inactive) | > 100 µM (inactive) | > 100 µM (inactive) | 45.5 µM (inactive) | 34.4 µM (inactive) | 77.1 µM (inactive) | 24.4 µM (inactive)
COc1nc(N=P(c2ccccc2)(c2ccccc2)c2ccccc2)cc(=O)[nH]1 | > 100 µM (inactive) | > 100 µM (inactive) | > 100 µM (inactive) | > 100 µM (inactive) | > 100 µM (inactive) | > 100 µM (inactive) | > 100 µM (inactive) | > 100 µM (inactive) | > 100 µM (inactive) | > 100 µM (inactive) | > 100 µM (inactive) | > 100 µM (inactive) | > 100 µM (inactive) | > 100 µM (inactive) | > 100 µM (inactive) | > 100 µM (inactive) | > 100 µM (inactive) | > 100 µM (inactive) | > 100 µM (inactive) | > 100 µM (inactive)
